The NIST ThermoML archive (doi:10.1021/acs.jced.8b00201)

Experiment: xn = mol fraction of the nth substance listed
Details: 100 kPa, Liquid; for viscosity: Concentric cylinders viscometry; for mass density: Vibrating tube method

O=C1CCCCC1 [cyclohexanone] + CCCCCCO
Details	mass density [kg/m3]	viscosity [mPa·s]
293.15 K, x1 = 0.0818	827.6	4.66
293.15 K, x1 = 0.1594	836.2	4.06
293.15 K, x1 = 0.2401	845.5	3.55
293.15 K, x1 = 0.3467	858.2	2.97
293.15 K, x1 = 0.4439	870.2	2.55
293.15 K, x1 = 0.564	885.7	2.18
293.15 K, x1 = 0.6501	897.3	2.02
293.15 K, x1 = 0.7381	909.5	1.97
293.15 K, x1 = 0.8512	925.9	2
293.15 K, x1 = 0.9426	939.8	2.13
293.15 K, x1 = 1	948.8	2.3
298.15 K, x1 = 0.0818	823.8	4.03
298.15 K, x1 = 0.1594	832.2	3.54
298.15 K, x1 = 0.2401	841.3	3.12
298.15 K, x1 = 0.3467	853.7	2.63
298.15 K, x1 = 0.4439	865.5	2.3
298.15 K, x1 = 0.564	880.7	1.98
298.15 K, x1 = 0.6501	892.1	1.86
298.15 K, x1 = 0.7381	904.2	1.81
298.15 K, x1 = 0.8512	920.5	1.84
298.15 K, x1 = 0.9426	934.7	1.95
298.15 K, x1 = 1	943.1	2.09
303.15 K, x1 = 0.0818	820	3.47
303.15 K, x1 = 0.1594	828.3	3.07
303.15 K, x1 = 0.2401	837.2	2.72
303.15 K, x1 = 0.3467	849.5	2.33
303.15 K, x1 = 0.4439	861.1	2.05
303.15 K, x1 = 0.564	876.2	1.8
303.15 K, x1 = 0.6501	887.5	1.71
303.15 K, x1 = 0.7381	899.5	1.67
303.15 K, x1 = 0.8512	915.6	1.7
303.15 K, x1 = 0.9426	929.8	1.79
303.15 K, x1 = 1	938.2	1.91
308.15 K, x1 = 0.0818	816.3	3.04
308.15 K, x1 = 0.1594	824.4	2.71
308.15 K, x1 = 0.2401	833.2	2.41
308.15 K, x1 = 0.3467	845.3	2.09
308.15 K, x1 = 0.4439	856.8	1.87
308.15 K, x1 = 0.564	871.8	1.67
308.15 K, x1 = 0.6501	883	1.59
308.15 K, x1 = 0.7381	894.9	1.55
308.15 K, x1 = 0.8512	911	1.58
308.15 K, x1 = 0.9426	925.1	1.64
308.15 K, x1 = 1	933.5	1.75
313.15 K, x1 = 0.0818	812.4	2.66
313.15 K, x1 = 0.1594	820.5	2.39
313.15 K, x1 = 0.2401	829.2	2.14
313.15 K, x1 = 0.3467	841.1	1.86
313.15 K, x1 = 0.4439	852.5	1.68
313.15 K, x1 = 0.564	867.3	1.51
313.15 K, x1 = 0.6501	878.5	1.45
313.15 K, x1 = 0.7381	890.3	1.42
313.15 K, x1 = 0.8512	906.3	1.45
313.15 K, x1 = 0.9426	920.4	1.51
313.15 K, x1 = 1	928.8	1.6
318.15 K, x1 = 0.0818	808.7	2.33
318.15 K, x1 = 0.1594	816.7	2.1
318.15 K, x1 = 0.2401	825.3	1.9
318.15 K, x1 = 0.3467	837.1	1.68
318.15 K, x1 = 0.4439	848.4	1.52
318.15 K, x1 = 0.564	863.1	1.38
318.15 K, x1 = 0.6501	874.2	1.33
318.15 K, x1 = 0.7381	886	1.31
318.15 K, x1 = 0.8512	901.9	1.33
318.15 K, x1 = 0.9426	916	1.39
318.15 K, x1 = 1	924.4	1.46
323.15 K, x1 = 0.0818	804.9	2.05
323.15 K, x1 = 0.1594	812.8	1.86
323.15 K, x1 = 0.2401	821.4	1.7
323.15 K, x1 = 0.3467	833.2	1.51
323.15 K, x1 = 0.4439	844.5	1.39
323.15 K, x1 = 0.564	859.2	1.28
323.15 K, x1 = 0.6501	870.3	1.23
323.15 K, x1 = 0.7381	882.2	1.22
323.15 K, x1 = 0.8512	898.1	1.23
323.15 K, x1 = 0.9426	912.2	1.27
323.15 K, x1 = 1	920.7	1.34

O=C1CCCCC1 [cyclohexanone] + CCCCCO
Details	mass density [kg/m3]	viscosity [mPa·s]
293.15 K, x1 = 0.0803	825.1	3.57
293.15 K, x1 = 0.1609	835.7	3.16
293.15 K, x1 = 0.2403	846.2	2.8
293.15 K, x1 = 0.3473	860.4	2.41
293.15 K, x1 = 0.4404	872.7	2.17
293.15 K, x1 = 0.5619	889	1.96
293.15 K, x1 = 0.6501	900.9	1.88
293.15 K, x1 = 0.747	914	1.87
293.15 K, x1 = 0.8494	928	1.98
293.15 K, x1 = 0.9404	940.5	2.12
293.15 K, x1 = 1	948.8	2.3
298.15 K, x1 = 0.0803	821.1	3.1
298.15 K, x1 = 0.1609	831.6	2.77
298.15 K, x1 = 0.2403	841.9	2.49
298.15 K, x1 = 0.3473	855.8	2.15
298.15 K, x1 = 0.4404	868	1.96
298.15 K, x1 = 0.5619	884.1	1.8
298.15 K, x1 = 0.6501	895.8	1.74
298.15 K, x1 = 0.747	908.8	1.74
298.15 K, x1 = 0.8494	922.6	1.83
298.15 K, x1 = 0.9404	934.9	1.97
298.15 K, x1 = 1	943.1	2.09
303.15 K, x1 = 0.0803	817.3	2.71
303.15 K, x1 = 0.1609	827.6	2.44
303.15 K, x1 = 0.2403	837.8	2.2
303.15 K, x1 = 0.3473	851.6	1.94
303.15 K, x1 = 0.4404	863.7	1.77
303.15 K, x1 = 0.5619	879.6	1.63
303.15 K, x1 = 0.6501	891.2	1.58
303.15 K, x1 = 0.747	904.1	1.58
303.15 K, x1 = 0.8494	917.8	1.67
303.15 K, x1 = 0.9404	930.1	1.78
303.15 K, x1 = 1	938.2	1.91
308.15 K, x1 = 0.0803	813.4	2.38
308.15 K, x1 = 0.1609	823.6	2.14
308.15 K, x1 = 0.2403	833.7	1.95
308.15 K, x1 = 0.3473	847.4	1.73
308.15 K, x1 = 0.4404	859.5	1.6
308.15 K, x1 = 0.5619	875.3	1.49
308.15 K, x1 = 0.6501	886.8	1.46
308.15 K, x1 = 0.747	899.6	1.46
308.15 K, x1 = 0.8494	913.2	1.54
308.15 K, x1 = 0.9404	925.5	1.64
308.15 K, x1 = 1	933.5	1.75
313.15 K, x1 = 0.0803	809.6	2.08
313.15 K, x1 = 0.1609	819.7	1.9
313.15 K, x1 = 0.2403	829.8	1.73
313.15 K, x1 = 0.3473	843.4	1.54
313.15 K, x1 = 0.4404	855.3	1.43
313.15 K, x1 = 0.5619	871	1.34
313.15 K, x1 = 0.6501	882.4	1.32
313.15 K, x1 = 0.747	895.1	1.33
313.15 K, x1 = 0.8494	908.7	1.4
313.15 K, x1 = 0.9404	920.8	1.5
313.15 K, x1 = 1	928.8	1.6
318.15 K, x1 = 0.0803	805.7	1.84
318.15 K, x1 = 0.1609	815.7	1.68
318.15 K, x1 = 0.2403	825.6	1.53
318.15 K, x1 = 0.3473	839.1	1.38
318.15 K, x1 = 0.4404	851	1.29
318.15 K, x1 = 0.5619	866.6	1.21
318.15 K, x1 = 0.6501	878.1	1.19
318.15 K, x1 = 0.747	890.7	1.21
318.15 K, x1 = 0.8494	904.3	1.28
318.15 K, x1 = 0.9404	916.4	1.37
318.15 K, x1 = 1	924.4	1.46
323.15 K, x1 = 0.0803	801.9	1.65
323.15 K, x1 = 0.1609	811.9	1.52
323.15 K, x1 = 0.2403	821.8	1.4
323.15 K, x1 = 0.3473	835.3	1.27
323.15 K, x1 = 0.4404	847.1	1.19
323.15 K, x1 = 0.5619	862.8	1.21
323.15 K, x1 = 0.6501	874.2	1.107
323.15 K, x1 = 0.747	886.9	1.13
323.15 K, x1 = 0.8494	900.5	1.19
323.15 K, x1 = 0.9404	912.7	1.27
323.15 K, x1 = 1	920.7	1.34
